One data set concerns the target T1, BRAF (Homo sapiens, UniProt P15056).
T1 construct: purchased Eurofins Genomics KK; (BRAF); Thermo Fisher Scientific Inc. (MEK1)
The data set is described as follows: BRAF-inhibiting activity, time-resolved fluorescence-fluorescence resonance energy transfer assay. The format is biochemical. How it is done:
The BRAF-inhibiting activity of the compounds listed in Table 3 below was evaluated by the time-resolved fluorescence-fluorescence resonance energy transfer assay as described below.

A short description of data set [1]: Human liver microsome stability. The data set is classed as in vitro ADME. The conditions noted are these: human liver microsomes, pH 7.4. Background: Liver microsomes are a subcellular fraction often used to study metabolism.
The target of the next data set is T2, MEK1 (Homo sapiens, UniProt Q02750).
T2 construct: purchased Thermo Fisher Scientific Inc. (MEK1, CRAF); Carna Biosciences, Inc. (ERK2)
The data set is described as follows: MEK1-inhibiting activity, fluorescent polarization method (CRAF/MEK1/ERK2 cascade, IMAP). The data set is classed as biochemical. The conditions noted are these: Table 3; read-out: MEK1 IC50. As for the experimental part: The MEK1-inhibiting activity of the compounds listed in Table 3 below were evaluated by the fluorescent polarization method as described below.

A further data set concerns NCI-H2122. The data set is described as follows: Cell proliferation-inhibiting activity (ATP in viable cells, CellTiter-Glo), NCI-H2122. The format is cell-based, human. The conditions noted are these: NCI-H2122, 96 h; human lung cancer cells, 4 days; read-out: NCI-H2122 IC50. (In general: ATP-based viability assays read luminescence as a measure of living cells.)

pIC50: −log10 of the molar value. Like-named read-outs stand apart in the source and are kept apart here.

T2 sequence (Q02750 whole entry): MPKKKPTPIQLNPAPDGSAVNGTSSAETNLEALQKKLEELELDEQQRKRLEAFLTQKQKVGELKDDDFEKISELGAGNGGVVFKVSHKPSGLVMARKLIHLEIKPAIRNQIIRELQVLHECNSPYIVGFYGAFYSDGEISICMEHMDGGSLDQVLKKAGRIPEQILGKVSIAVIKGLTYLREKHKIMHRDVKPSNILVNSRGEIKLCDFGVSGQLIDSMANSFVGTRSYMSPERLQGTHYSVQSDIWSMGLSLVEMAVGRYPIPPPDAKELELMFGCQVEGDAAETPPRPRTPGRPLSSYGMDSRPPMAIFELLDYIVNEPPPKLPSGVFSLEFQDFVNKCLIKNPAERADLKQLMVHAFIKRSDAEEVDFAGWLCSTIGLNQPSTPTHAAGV
T1 sequence (P15056 417-766 limits assumed): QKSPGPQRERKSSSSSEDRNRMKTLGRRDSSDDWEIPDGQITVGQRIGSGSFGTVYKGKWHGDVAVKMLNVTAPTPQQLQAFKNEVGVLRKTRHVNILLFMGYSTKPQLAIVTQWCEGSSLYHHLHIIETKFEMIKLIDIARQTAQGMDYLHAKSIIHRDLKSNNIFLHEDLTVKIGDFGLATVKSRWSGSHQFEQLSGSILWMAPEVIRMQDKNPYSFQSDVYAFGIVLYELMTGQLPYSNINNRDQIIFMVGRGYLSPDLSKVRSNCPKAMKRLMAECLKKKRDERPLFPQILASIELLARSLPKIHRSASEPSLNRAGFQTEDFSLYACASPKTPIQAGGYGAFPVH

On to `CNS(=O)(=O)Nc1cccc(Cc2cc(C(=O)NC3CC3)c(Nc3ccc(C4CC4)cc3F)c(F)c2F)c1F` [Compound D-15, N-Cyclopropyl-2-(4-cyclopropyl-2-fluoroanilino)-3,4-difluoro-5-[[2-fluoro-3-(methylsulfamoylamino)phenyl]methyl]benzamide], for which the results for the pIC50 on BRAF (read-out: BRAF IC50; Table 3) and on MEK1 were 7.77 and 5.91, respectively. Moreover, the microsomal CLint at 0.99 µM in data set [1] is 91 µL/min/mg.
With `CCS(=O)(=O)Nc1cc(Cc2cc(C(N)=O)c(Nc3ccc(I)cc3F)n(C)c2=O)ccn1` [Compound J-12, 5-[[2-(Ethylsulfonylamino)pyridin-4-yl]methyl]-2-(2-fluoro-4-iodoanilino)-1-methyl-6-oxopyridine-3-carboxamide], the negative logarithm of the IC50 (pIC50) with NCI-H2122 was 6.74; at MEK1, 5.64. In addition, in data set [1], the microsomal CLint at 0.99 µM is 19 µL/min/mg.
`CNS(=O)(=O)Nc1nccc(Cc2cc(C(=O)NC3CC3)c(Nc3ccc(C4CC4)cc3F)c(F)c2F)c1F` [Compound G-1, N-Cyclopropyl-2-(4-cyclopropyl-2-fluoroanilino)-3,4-difluoro-5-[[3-fluoro-2-(methylsulfamoylamino)pyridin-4-yl]methyl]benzamide]: the pIC50 at BRAF (read-out: BRAF IC50; Table 3) was 7.92; at MEK1, 6.65. Also, in data set [1], the microsomal CLint at 0.99 µM stood at 32 µL/min/mg.
Take `CC1(NS(=O)(=O)Nc2cccc(Cc3cc(C(=O)NC4CC4)c(Nc4ccc(I)cc4F)c(F)c3F)c2F)CCC1` [Compound D-10, N-Cyclopropyl-3,4-difluoro-2-(2-fluoro-4-iodoanilino)-5-[[2-fluoro-3-[(1-methylcyclobutyl)sulfamoylamino]phenyl]methyl]benzamide]: the negative logarithm of the IC50 (pIC50) at BRAF (read-out: BRAF IC50; Table 3) is 7.47; in the data set on NCI-H2122 it was 7.55; at MEK1, 6.58. Besides, in data set [1], the intrinsic clearance (microsomal CLint) at 0.99 µM was determined as 107 µL/min/mg.
In turn, `O=C(NOC[C@H](O)CO)c1ccc(F)c(F)c1Nc1ccc(I)cc1F` [Ref-1, N-[(2R)-2,3-Dihydroxypropoxy]-3,4-difluoro-2-(2-fluoro-4-iodoanilino)benzamide, reference compound] registered a microsomal CLint at 0.99 µM in data set [1] of 20 µL/min/mg.
On to `Cc1c(Nc2ccc(I)cc2F)c(C(N)=O)cn(Cc2ccnc(NS(=O)(=O)NC3(C)CCC3)c2F)c1=O` [Compound P-3, 4-(2-Fluoro-4-iodoanilino)-1-[[3-fluoro-2-[(1-methylcyclobutyl)sulfamoylamino]pyridin-4-yl]methyl]-5-methyl-6-oxopyridine-3-carboxamide], for which the pIC50 was 8.00 at BRAF (read-out: BRAF IC50; Table 3), 7.02 in the data set on NCI-H2122 and 8.52 at MEK1. Also, the microsomal CLint at 0.99 µM in data set [1] turned out to be 37 µL/min/mg.
For `COCCNS(=O)(=O)Nc1nccc(Cc2cc(C(N)=O)c(Nc3ccc(I)cc3F)cc2F)c1F` [Compound I-4, 4-Fluoro-2-(2-fluoro-4-iodoanilino)-5-[[3-fluoro-2-(2-methoxyethylsulfamoylamino)pyridin-4-yl]methyl]benzamide], the pIC50 was 8.40 on BRAF (read-out: BRAF IC50; Table 3), 7.08 with NCI-H2122 and 6.56 at MEK1. This compound registered an intrinsic clearance (microsomal CLint) at 0.99 µM in data set [1] of 25 µL/min/mg.
For `CCS(=O)(=O)Nc1nccc(Cc2cc(C(=O)NC3CC3)c(Nc3ccc(C4CC4)cc3F)c(F)c2F)c1F` [Compound G-7, N-Cyclopropyl-2-(4-cyclopropyl-2-fluoroanilino)-5-[[2-(ethylsulfonylamino)-3-fluoropyridin-4-yl]methyl]-3,4-difluorobenzamide] the same measures were 7.34, 7.12, 5.61 and 21 µL/min/mg.
For `CCS(=O)(=O)Nc1nccc(Cn2cc(C(N)=O)c(Nc3ccc(I)cc3F)c(C)c2=O)c1F` [Compound P-2, 1-[[2-(Ethylsulfonylamino)-3-fluoropyridin-4-yl]methyl]-4-(2-fluoro-4-iodoanilino)-5-methyl-6-oxopyridine-3-carboxamide], the microsomal CLint at 0.99 µM in data set [1] is 3 µL/min/mg. In addition, the pIC50 at MEK1 was 8.10.
In the case of `CC1(NS(=O)(=O)Nc2nccc(Cc3cc(C(=O)NC4CC4)c(Nc4ccc(I)cc4F)c(F)c3F)c2F)CCC1` [Compound A-47, N-Cyclopropyl-3,4-difluoro-2-(2-fluoro-4-iodoanilino)-5-[[3-fluoro-2-[(1-methylcyclobutyl)sulfamoylamino]pyridin-4-yl]methyl]benzamide], the figures for the pIC50 on BRAF (read-out: BRAF IC50; Table 3), in the data set with NCI-H2122 and on MEK1 were 7.68, 7.77 and 7.41, respectively. In data set [1], this compound yielded a microsomal CLint at 0.99 µM of 38 µL/min/mg.
The corresponding values for `COCCNS(=O)(=O)Nc1nccc(Cc2cc(C(=O)NOC)c(Nc3ccc(I)cc3F)n(C)c2=O)c1F` [Compound J-9, 2-(2-Fluoro-4-iodoanilino)-5-[[3-fluoro-2-(2-methoxyethylsulfamoylamino)pyridin-4-yl]methyl]-N-methoxy-1-methyl-6-oxopyridine-3-carbox amide] are 8.52, 7.77, 7.19 and 23 µL/min/mg.
For `Cn1c(Nc2ccc(I)cc2F)c(C(N)=O)cc(Cc2ccnc(NS(=O)(=O)NC3CC3)c2F)c1=O` [Compound J-13, 5-[[2-(Cyclopropylsulfamoylamino)-3-fluoropyridin-4-yl]methyl]-2-(2-fluoro-4-iodoanilino)-1-methyl-6-oxopyridine-3-carboxamide] the same measures were 8.40, 7.10, 7.54 and 39 µL/min/mg.
For `CCS(=O)(=O)Nc1nccc(Cn2cc(C(=O)NOC)c(Nc3ccc(I)cc3F)c(C)c2=O)c1F` [Compound P-5] the same measures were 7.96, 7.51, 7.96 and 2 µL/min/mg.
Consider `CCNS(=O)(=O)Nc1nccc(Cc2cc(C(=O)NOCCO)c(Nc3ccc(I)cc3F)c(F)c2F)c1F` [Compound A-44, 5-[[2-(Ethylsulfamoylamino)-3-fluoropyridin-4-yl]methyl]-3,4-difluoro-2-(2-fluoro-4-iodoanilino)-N-(2-hydroxyethoxy)benzamide], for which the pIC50 on BRAF (Table 3; read-out: BRAF IC50) was 7.72; with NCI-H2122, 9.00; at MEK1 it was 8.70.
As for `CNS(=O)(=O)Nc1nccc(Cc2cc(C(=O)NC3CC3)c(Nc3ccc(I)cc3F)c(F)c2F)c1F` [Compound A-2, N-cyclopropyl-3,4-difluoro-2-(2-fluoro-4-iodoanilino)-5-[[3-fluoro-2-(methylsulfamoylamino)pyridin-4-yl]methyl]benzamide], the pIC50 on BRAF (read-out: BRAF IC50; Table 3) was 8.52; on MEK1 it was 8.30. The intrinsic metabolic clearance (microsomal CLint) at 0.99 µM in data set [1] stood at 25 µL/min/mg.
The corresponding values for `CNS(=O)(=O)Nc1nccc(Cc2cc(C(N)=O)c(Nc3ccc(C4CC4)cc3F)n(C)c2=O)c1F` [Compound J-3, 2-(4-Cyclopropyl-2-fluoroanilino)-5-[[3-fluoro-2-(methylsulfamoylamino)pyridin-4-yl]methyl]-1-methyl-6-oxopyridine-3-carboxamide] are 7.96, 6.51 and 23 µL/min/mg.
`NC(=O)c1cc(Cc2ccnc(NS(=O)(=O)NC3CC3)c2F)c(F)cc1Nc1ccc(I)cc1F` [Compound I-3, 5-[[2-(Cyclopropylsulfamoylamino)-3-fluoropyridin-4-yl]methyl]-4-flu oro-2-(2-fluoro-4-iodoanilino)benzamide]: the negative logarithm of the IC50 (pIC50) is 8.70 at BRAF (read-out: BRAF IC50; Table 3) and 7.26 at MEK1. Further, the microsomal CLint at 0.99 µM in data set [1] is 16 µL/min/mg.
On to `CCCNS(=O)(=O)Nc1nccc(Cn2cc(C(N)=O)c(Nc3ccc(I)cc3F)c(F)c2=O)c1F` [Compound N-2, 5-Fluoro-4-(2-fluoro-4-iodoanilino)-1-[[3-fluoro-2-(propylsulfamoylamino)pyridin-4-yl]methyl]-6-oxopyridine-3-carboxamide], for which the negative-log IC50 (pIC50) on BRAF (read-out: BRAF IC50; Table 3) was 9.00; with NCI-H2122 it was 7.22; on MEK1, 9.00. In data set [1], this compound showed a microsomal CLint at 0.99 µM of 11 µL/min/mg.
On to `COCCNS(=O)(=O)Nc1nccc(Cc2cc(C(N)=O)c(Nc3ccc(I)cc3F)n(C)c2=O)c1F` [Compound J-2, 2-(2-Fluoro-4-iodoanilino)-5-[[3-fluoro-2-(2-methoxyethylsulfamoylamino)pyridin-4-yl]methyl]-1-methyl-6-oxopyridine-3-carboxamide], for which the pIC50 on BRAF (read-out: BRAF IC50; Table 3) was 7.96; in the data set on NCI-H2122, 6.89; on MEK1, 6.31. This compound had an intrinsic metabolic clearance (microsomal CLint) at 0.99 µM in data set [1] of 16 µL/min/mg.
The corresponding values for `CCNS(=O)(=O)Nc1nccc(Cc2cc(C(N)=O)c(Nc3ccc(I)cc3F)n(C)c2=O)c1F` [Compound J-14, 5-[[2-(ethylsulfamoylamino)-3-fluoropyridin-4-yl]methyl]-2-(2-fluoro-4-iodoanilino)-1-methyl-6-oxopyridine-3-carboxamide] are 8.52, 7.43, 7.66 and 34 µL/min/mg.
The corresponding values for `Cn1c(Nc2ccc(I)cc2F)c(C(N)=O)cc(Cc2ccnc(NS(=O)(=O)NC3(C)CCC3)c2F)c1=O` [Compound J-15, 2-(2-Fluoro-4-iodoanilino)-5-[[3-fluoro-2-[(1-methylcyclobutyl)sulfamoylamino]pyridin-4-yl]methyl]-1-methyl-6-oxopyridine-3-carboxamide] are 7.92, 7.34, 7.25 and 225 µL/min/mg.

Broadly, the pIC50 is −log10 of the IC50, conventionally taken in molar units. By microsomal CLint is commonly meant the capacity of the preparation to metabolise the compound, expressed as a volume cleared per time. The low end stands for slow turnover, the high end for rapid turnover.
